{"source": "paper PMC3621123", "about": "(Journal of medicinal chemistry, 2013)", "key": {"A. baumannii": {"tested_on": "A. baumannii", "settings": "ref unpublished results, Brian Beck, Laura Celia, ATCC; cited from earlier work"}, "K. pneumoniae": {"tested_on": "K. pneumoniae", "settings": "ref unpublished results, Brian Beck, Laura Celia, ATCC; cited from earlier work"}, "E. coli": {"tested_on": "E. coli", "settings": "ref unpublished results, Brian Beck, Laura Celia, ATCC; cited from earlier work"}, "P. aeruginosa": {"tested_on": "P. aeruginosa", "settings": "ref unpublished results, Brian Beck, Laura Celia, ATCC; cited from earlier work"}, "MbtA": {"target": "MbtA (Mycobacterium tuberculosis, UniProt P71716)", "sequence (P71716 whole entry)": "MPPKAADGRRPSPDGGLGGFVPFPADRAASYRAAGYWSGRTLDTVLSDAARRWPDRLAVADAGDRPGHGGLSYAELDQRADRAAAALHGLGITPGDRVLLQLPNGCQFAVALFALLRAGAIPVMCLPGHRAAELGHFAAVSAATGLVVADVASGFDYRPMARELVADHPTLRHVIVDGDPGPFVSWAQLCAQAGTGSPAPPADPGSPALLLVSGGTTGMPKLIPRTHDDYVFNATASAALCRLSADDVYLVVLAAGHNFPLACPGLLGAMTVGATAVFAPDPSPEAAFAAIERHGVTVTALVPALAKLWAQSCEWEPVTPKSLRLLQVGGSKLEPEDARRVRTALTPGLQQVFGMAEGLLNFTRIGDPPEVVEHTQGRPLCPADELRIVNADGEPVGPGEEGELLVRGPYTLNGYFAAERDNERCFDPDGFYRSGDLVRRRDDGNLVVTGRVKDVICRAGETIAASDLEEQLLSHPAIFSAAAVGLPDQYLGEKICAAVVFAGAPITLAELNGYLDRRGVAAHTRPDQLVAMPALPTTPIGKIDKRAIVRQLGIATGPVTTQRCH", "assay": "Fluorescence polarization displacement of Fl-Sal-AMS 14 from MbtA", "assay_type": "binding", "settings": "for fold loss of affinity toward MbtA relative to 15: ratio of KD to lead compound 15"}, "BasE [1]": {"target": "T1, BasE (Acinetobacter baumannii, UniProt A0A0D5YGP3)", "assay": "biochemical", "assay_type": "binding", "settings": "for fold loss of affinity/potency toward BasE relative to 15: ratio of KD to lead compound 15; for Kd: KD (nM) BasE, FP displacement, 20 nM Fl-Sal-AMS 14, 200 nM BasE, pH 7.5, 25 °C; for fold increase in affinity toward BasE relative to 15: ratio of KD of lead compound 15 to compound"}, "BasE [2]": {"target": "T1, BasE", "settings": "read-out: KD1, equilibrium dissociation constant of probe 14 for BasE; cited from earlier work"}}, "note": "Several values for one entry are separate records, joined by “and”; a condition that tells them apart may be missing. Equal values may be shown once. Read-outs that look alike come from different tables or passages of the source.", "data": [{"molecule": "Nc1ncnc2c1ncn2[C@@H]1O[C@H](COS(=O)(=O)NC(=O)c2cccc(O)c2O)[C@@H](O)[C@H]1O", "note": "[2,3-DHB-AMS, 5′-O-[N-(2,3-dihydroxybenzoyl)sulfamoyl]adenosine]", "values": [{"measurement": "activity against A. baumannii", "setting": "A. baumannii", "result": "no activity"}, {"measurement": "activity against K. pneumoniae", "setting": "K. pneumoniae", "result": "no activity"}, {"measurement": "activity against E. coli", "setting": "E. coli", "result": "no activity"}, {"measurement": "activity against P. aeruginosa", "setting": "P. aeruginosa", "result": "no activity"}]}, {"molecule": "Cc1ccc(-c2cc(C(=O)O)c3cnn(Cc4ccncc4)c3n2)cc1", "note": "[Compound 39]", "values": [{"measurement": "fold increase in affinity toward MbtA relative to 15", "setting": "MbtA; ratio of KD of lead compound 15 to compound", "result": 2.6, "unit": "fold"}]}, {"molecule": "O=C(O)c1cc(-c2ccco2)nc2c1cnn2Cc1ccncc1", "note": "[Compound 75]", "values": [{"measurement": "fold loss of affinity/potency toward BasE relative to 15", "setting": "BasE [1]", "result": "~ 10 fold"}]}, {"molecule": "C#Cc1cc(C(=O)O)c2cnn(Cc3ccncc3)c2n1", "note": "[Compound 93, 6-Ethynyl-1-(pyridin-4-ylmethyl)-1H-pyrazolo[3,4-b]pyridine-4-carboxylic acid]", "values": [{"measurement": "fold loss of affinity/potency toward BasE relative to 15", "setting": "BasE [1]", "result": "~ 55 fold"}]}, {"molecule": "Nc1cc(-c2ccccc2)nc2c1cnn2Cc1ccncc1", "note": "[Compound 21, 6-Phenyl-1-(pyridin-4-ylmethyl)-1H-pyrazolo[3,4-b]pyridin-4-amine]", "values": [{"measurement": "fold loss of affinity/potency toward BasE relative to 15", "setting": "BasE [1]", "result": "approximately 6 fold"}]}, {"molecule": "NC(=O)c1cc(-c2ccccc2)nc2c1cnn2Cc1ccncc1", "note": "[Compound 22, 6-Phenyl-1-(pyridin-4-ylmethyl)-1H-pyrazolo[3,4-b]pyridine-4-carboxamide]", "values": [{"measurement": "fold loss of affinity/potency toward BasE relative to 15", "setting": "BasE [1]", "result": "1.8 fold and 2 fold"}]}, {"molecule": "C=Cc1cc(C(=O)O)c2cnn(Cc3ccncc3)c2n1", "note": "[Compound 91]", "values": [{"measurement": "fold loss of affinity/potency toward BasE relative to 15", "setting": "BasE [1]", "result": "~ 55 fold"}]}, {"molecule": "O=C(O)c1cc(=O)[nH]c2c1cnn2Cc1ccncc1", "note": "[Compound 98, 6-Oxo-1-(pyridin-4-ylmethyl)-6,7-dihydro-1H-pyrazolo[3,4-b]pyridine-4-carboxylic acid]", "values": [{"measurement": "fold loss of affinity/potency toward BasE relative to 15", "setting": "BasE [1]", "result": "> 2800", "unit": "fold"}]}, {"molecule": "CCOC(=O)c1cc(-c2ccccc2)nc2c1cnn2Cc1ccncc1", "note": "[Compound 18, Ethyl 6-phenyl-1-(pyridin-4-ylmethyl)-1H-pyrazolo[3,4-b]pyridine-4-carboxylate]", "values": [{"measurement": "fold loss of affinity/potency toward BasE relative to 15", "setting": "BasE [1]", "result": 60, "unit": "fold"}]}, {"molecule": "O=C(O)c1cc(-c2ccccc2)cc2nn(Cc3ccncc3)cc12", "note": "[Compound 99, 6-Phenyl-2-(pyridin-4-ylmethyl)-2H-indazole-4-carboxylic acid]", "values": [{"measurement": "fold loss of affinity/potency toward BasE relative to 15", "setting": "BasE [1]", "result": 1800, "unit": "fold"}, {"measurement": "fold loss of affinity toward MbtA relative to 15", "setting": "MbtA", "result": 15.5, "unit": "fold"}]}, {"molecule": "O=C(c1ccccc1)c1ccc(-c2cc(C(=O)O)c3cnn(Cc4ccncc4)c3n2)cc1", "note": "[Compound 70]", "values": [{"measurement": "Kd", "setting": "BasE [1]", "result": 19, "unit": "nM"}, {"measurement": "fold increase in affinity toward BasE relative to 15", "setting": "BasE [1]", "result": 2, "unit": "fold"}]}, {"molecule": "COc1ccc(COc2ccc(-c3cc(C(=O)O)c4cnn(Cc5ccncc5)c4n3)cc2)cc1", "note": "[Compound 68]", "values": [{"measurement": "fold less potent than 67 toward BasE", "setting": "BasE [1]; relative to p-benzyloxy 67", "result": 21, "unit": "fold"}]}, {"molecule": "Cc1ccsc1-c1cc(C(=O)O)c2cnn(Cc3ccncc3)c2n1", "note": "[Compound 77]", "values": [{"measurement": "fold loss of affinity/potency toward BasE relative to 15", "setting": "BasE [1]", "result": 9, "unit": "fold"}]}, {"molecule": "CC(=O)Nc1ccc(-c2cc(C(=O)O)c3cnn(Cc4ccncc4)c3n2)cc1", "note": "[Compound 54]", "values": [{"measurement": "fold loss of affinity/potency toward BasE relative to 15", "setting": "BasE [1]", "result": "over 20 fold"}]}, {"molecule": "O=C(O)c1cc(-c2ccc3[nH]ccc3c2)nc2c1cnn2Cc1ccncc1", "note": "[Compound 87]", "values": [{"measurement": "fold loss of affinity/potency toward BasE relative to 15", "setting": "BasE [1]", "result": 1.7, "unit": "fold"}]}, {"molecule": "O=C(O)c1cc(-c2ccccc2)cc2c1ccn2Cc1ccncc1", "note": "[Compound 17, 6-Phenyl-1-(pyridin-4-ylmethyl)-1H-indole-4-carboxylic acid]", "values": [{"measurement": "fold loss of affinity/potency toward BasE relative to 15", "setting": "BasE [1]", "result": 1400, "unit": "fold"}]}, {"molecule": "O=C(O)c1cc(-c2cccc(Cl)c2)nc2c1cnn2Cc1ccncc1", "note": "[Compound 45]", "values": [{"measurement": "Kd", "setting": "BasE [1]", "result": "< 10", "unit": "nM"}, {"measurement": "fold increase in affinity toward BasE relative to 15", "setting": "BasE [1]", "result": "more than 4 fold"}]}, {"molecule": "O=C(O)c1cc(-c2cccs2)nc2c1cnn2Cc1ccncc1", "note": "[Compound 76]", "values": [{"measurement": "fold loss of affinity/potency toward BasE relative to 15", "setting": "BasE [1]", "result": "~ 10 fold"}]}, {"molecule": "COc1ccc(-c2cc(C(=O)O)c3cnn(Cc4ccncc4)c3n2)cc1", "note": "[Compound 62]", "values": [{"measurement": "fold loss of affinity/potency toward BasE relative to 15", "setting": "BasE [1]", "result": 2.2, "unit": "fold"}]}, {"molecule": "O=C(O)c1cc(C#Cc2ccccc2)nc2c1cnn2Cc1ccncc1", "note": "[Compound 94, 6-(Phenylethynyl)-1-(pyridin-4-ylmethyl)-1H-pyrazolo[3,4-b]pyridine-4-carboxylic acid]", "values": [{"measurement": "fold loss of affinity/potency toward BasE relative to 15", "setting": "BasE [1]", "result": "~ 10 fold"}]}, {"molecule": "O=C(O)c1cc(-c2ccccc2)cc2c1cnn2Cc1ccncc1", "note": "[Compound 16, 6-Phenyl-1-(pyridin-4-ylmethyl)-1H-indazole-4-carboxylic acid]", "values": [{"measurement": "fold loss of affinity/potency toward BasE relative to 15", "setting": "BasE [1]", "result": 2, "unit": "fold"}]}, {"molecule": "O=C(O)c1cc(-c2cncc3ccccc23)nc2c1cnn2Cc1ccncc1", "note": "[Compound 86]", "values": [{"measurement": "fold loss of affinity/potency toward BasE relative to 15", "setting": "BasE [1]", "result": 215, "unit": "fold"}]}, {"molecule": "O=C(O)c1cc(/C=C/c2ccccc2)nc2c1cnn2Cc1ccncc1", "note": "[Compound 92]", "values": [{"measurement": "fold loss of affinity/potency toward BasE relative to 15", "setting": "BasE [1]", "result": "~ 10 fold"}]}, {"molecule": "OCc1cc(-c2ccccc2)nc2c1cnn2Cc1ccncc1", "note": "[Compound 19, 4-Hydroxymethyl-6-phenyl-1-(pyridin-4-ylmethyl)-1H-pyrazolo[3,4-b]pyridine]", "values": [{"measurement": "fold loss of affinity/potency toward BasE relative to 15", "setting": "BasE [1]", "result": "2.8 fold and 3 fold"}]}, {"molecule": "O=C(O)c1ccc(-c2cc(C(=O)O)c3cnn(Cc4ccncc4)c3n2)cc1", "note": "[Compound 58]", "values": [{"measurement": "fold loss of affinity/potency toward BasE relative to 15", "setting": "BasE [1]", "result": "over 20 fold"}, {"measurement": "fold loss of affinity toward MbtA relative to 15", "setting": "MbtA", "result": 2, "unit": "fold"}]}, {"molecule": "O=C(O)c1cc(-c2ccccc2)nc2c1cnn2Cc1ccc(O)cc1", "note": "[Compound 32, 1-(4-Hydroxybenzyl)-6-phenyl-1H-pyrazolo[3,4-b]pyridine-4-carboxylic acid]", "values": [{"measurement": "fold loss of affinity/potency toward BasE relative to 15", "setting": "BasE [1]", "result": 15, "unit": "fold"}]}, {"molecule": "Cc1ccc(-c2cc(C(=O)O)c3cnn(Cc4ccncc4)c3n2)s1", "note": "[Compound 79]", "values": [{"measurement": "Kd", "setting": "BasE [1]", "result": "< 10", "unit": "nM"}, {"measurement": "fold increase in affinity toward BasE relative to 15", "setting": "BasE [1]", "result": 5, "unit": "fold"}]}, {"molecule": "O=C(O)c1cc(-c2ccccc2O)nc2c1cnn2Cc1ccncc1", "note": "[Compound 40]", "values": [{"measurement": "fold loss of affinity/potency toward BasE relative to 15", "setting": "BasE [1]", "result": 7, "unit": "fold"}]}, {"molecule": "22-O-{2-[2-(2-{[(fluorescein-5-yl)carbonyl]amino}ethoxy)ethoxy]ethoxy}-52-O-[N-(salicyl)sulfamoyl]adenosine [Compound 14]", "values": [{"measurement": "Kd", "setting": "BasE [2]", "result": 84.3, "unit": "nM"}]}, {"molecule": "Nc1ccc(-c2cc(C(=O)O)c3cnn(Cc4ccncc4)c3n2)cc1", "note": "[Compound 52]", "values": [{"measurement": "fold loss of affinity/potency toward BasE relative to 15", "setting": "BasE [1]", "result": 2.2, "unit": "fold"}]}, {"molecule": "O=C(O)c1cc(-c2ccc(OCc3ccccc3)cc2)nc2c1cnn2Cc1ccncc1", "note": "[Compound 67]", "values": [{"measurement": "Kd", "setting": "BasE [1]", "result": "2 nM and < 10 nM"}, {"measurement": "fold increase in affinity toward BasE relative to 15", "setting": "BasE [1]", "result": 17, "unit": "fold"}]}, {"molecule": "O=C(O)c1cc(-c2ccc(O)cc2)nc2c1cnn2Cc1ccncc1", "note": "[Compound 42, 6-(4-Hydroxyphenyl)-1-(pyridin-4-ylmethyl)-1H-pyrazolo[3,4-b]pyridine-4-carboxylic acid]", "values": [{"measurement": "Kd", "setting": "BasE [1]", "result": "< 10", "unit": "nM"}, {"measurement": "fold increase in affinity toward BasE relative to 15", "setting": "BasE [1]", "result": "more than 4 fold"}]}, {"molecule": "O=C(O)c1cc(-c2ccc(-c3ccccc3)cc2)nc2c1cnn2Cc1ccncc1", "note": "[Compound 72]", "values": [{"measurement": "fold loss of affinity/potency toward BasE relative to 15", "setting": "BasE [1]", "result": 3.5, "unit": "fold"}]}, {"molecule": "Cc1csc(-c2cc(C(=O)O)c3cnn(Cc4ccncc4)c3n2)c1", "note": "[Compound 78]", "values": [{"measurement": "fold loss of affinity/potency toward BasE relative to 15", "setting": "BasE [1]", "result": 2.4, "unit": "fold"}]}]}
